Assay results as given in patent US11466070B2, “Signalling system” (AUTOLUS LIMITED, priority 2016, dated 2022).

System: BW5 T-cells
Assay: Activation of TetCAR-expressing BW5 T-cells challenged with SupT1 cells expressing CD33, with increasing tetracycline
Assay type: cell-based
Conditions: TetCAR (anti-CD33) BW5 T-cells challenged with SupT1 cells expressing CD33
From the text: A bicistronic construct was expressed in BW5 T cells as a single transcript which self-cleaves at the 2A site to yield a signalling component which comprises TiP fused via a flexible linker to the endodomain of CD3-Zeta; and a receptor component which comprises a CD33 recognizing scFv, a spacer derived from the Fc domain of IgG1, a CD4 derived transmembrane and intracellular domain; and TetR (FIG. 6a). A control was also expressed which was identical except that TiP was absent from the signalling component (FIG. 6b).
The BW5 T-cells were challenged with wild-type SupT1 cells or SupT1 cells engineered to express CD33 in the absence of tetracycline or in the presence of increasing concentrations of tetracycline.
Control TetCAR which lacks the TiP domain was also transduced into BW5. Once again, these T-cells were challenged with wild-type SupT1 cells or SupT1 cells engineered to express CD33 in the absence or in the presence of increasing concentration of Tetracycline.

SMILES: CN(C)[C@@H]1C(O)=C(C(N)=O)C(=O)[C@@]2(O)C(O)=C3C(=O)c4c(O)cccc4[C@@](C)(O)[C@H]3C[C@@H]12 [tetracycline, reference compound]
- concentration of tetracycline at which activation is fully inhibited: 100 nM
